Laboratory results: paper PMC9706575 (Journal of Medicinal Chemistry, 2022)
pKd: −log10 of the molar value.

What was measured:
[1] = mouse, in vivo, iv
targefrin = assay: ITC; reverse titration: 200 μM protein in the syringe, 20 injections of 2.5 μL into 10 μM compound in the cell; 25 mM Tris pH 7.5, 150 mM NaCl, 1% DMSO, 25 °C

Sequence of ephrin type-A receptor 2 ligand-binding domain (P29317 27-200): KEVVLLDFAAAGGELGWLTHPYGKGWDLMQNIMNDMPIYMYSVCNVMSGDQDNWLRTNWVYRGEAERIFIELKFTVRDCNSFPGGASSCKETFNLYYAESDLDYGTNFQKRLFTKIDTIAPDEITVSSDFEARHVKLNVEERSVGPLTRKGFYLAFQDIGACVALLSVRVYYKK

pKd (targefrin) | dH (targefrin) [kcal/mol] | Molecule | Body weight (g), Friday [1] [g] | Body weight (g), Thursday [1] [g] | Body weight (g), Wednesday [1] [g]
– | – | CC(=O)O[C@H]1C(=O)[C@@]2(C)[C@H]([C@H](OC(=O)c3ccccc3)[C@]3(O)C[C@H](OC(=O)[C@H](O)[C@@H](NC(=O)c4ccccc4)c4ccccc4)C(C)=C1C3(C)C)[C@]1(OC(C)=O)CO[C@@H]1C[C@@H]2O [PTX, paclitaxel] | 22.11 | 21.95 | 21.85
7.66 | -20.2 | ephrin type-A receptor 2 ligand-binding domain (from UniProt P29317 27-200) (domain or fragment) | – | – | –
